Paper PMC9541320, “Machine Learning Guided Discovery of Non‐Hemolytic Membrane Disruptive Anticancer Peptides” (Chemmedchem, 2022)
In brackets after ≈: the same amount, converted by molar mass. Read-outs that look alike come from different tables or passages of the source. Where a SMILES comes first, the peptide text is derived from it. Where no end group is shown, it is not given here. [ ]: non-standard residue; d: D form.

Key:
[1] = test system: human red blood cells (hRBC); conditions: below 200 μM; cited from earlier work
[2] = test system: human red blood cells (hRBC); assay: Hemolysis assay on human red blood cells; type: cell-based
Source text: Synthesis and bioactivity testing. We prepared the 33 selected peptides, as well as the reference ACP LL‐III, by semi‐automated high‐temperature Fmoc solid‐phase peptide synthesis and obtained pure samples by preparative HPLC. All peptides were well‐behaved in terms of aqueous solubility, in line with the presence of two to seven cationic residues (lysine or arginine) in each sequence (Table 1). […]. We performed full IC50 determination for active sequences under the same conditions and similarly profiled HEK293 cells as a model for non‐cancer cells. Finally, we determined peptide concentrations causing 50 % hemolysis (HC50) on human red blood cells (hRBC) by serial 2‐fold dilution.
Hemolysis assay. Compounds were subjected to a hemolysis assay to assess the hemolytic effect on human red blood cells (hRBCs). […]. Controls on each plate included a blank medium control (PBS 100 μL) and a hemolytic activity control (0.1 % Triton^TM X‐100). 100 μL of hRBC suspension was incubated with 100 μL of each sample in PBS in V‐shape 96‐well plate. […]. Hemolysis was measured by analyzing the absorbance of free hemoglobin leaked out of compromised in the supernatants at 540 nm with a plate reader (Tecan instrument Infinite M1000). The percentage of hemolysis at each concentration was detected and HC50 was determined.

HeLa cells = assay: Cell viability assay by AlamarBlue, HeLa cells; type: cell-based; conditions: 72 h incubation at 37 °C in DMEM high glucose medium with 10 % FBS; read-out: Toxicity IC50 HeLa
Protocol: (§2) To measure potential ACP activity, we exposed HeLa cells to 50 μM of each peptide for 72 h and quantified remaining live cells with Alamar Blue. We performed full IC50 determination for active sequences under the same conditions and similarly profiled HEK293 cells as a model for non‐cancer cells.
(§3) Cell Viability assay by AlamarBlue. […] HEK‐293 were seeded into well plates, pretreated with solution of poly‐L‐Lysine. The medium was removed and the compounds at increasing concentration were added into the wells. The cells were incubated for 72 h in 200 μL/well at 37 °C in corresponding medium in the presence of 5 % CO2. After incubation time the medium was removed and replaced by 100 μL/well of medium containing 10 % AlamarBlue. The cells were incubated for 3–5 h at 37 °C with 5 % CO2 in a humidified atmosphere. The fluorescence was then measured on a Tecan Infinite M1000 Pro plate reader at λex 560 nm and λem 590 nm. The value was normalized according to the untreated cells.

HEK293 cells = assay: Cell viability assay by AlamarBlue, HEK293 cells (model for non-cancer cells); type: cell-based; conditions: 72 h incubation at 37 °C in DMEM high glucose medium with 10 % FBS; read-out: Toxicity IC50 HEK 293
Protocol: as §2, §3

[3] = test system: Acinetobacter baumannii (ATCC19606); type: cell-based
Protocol: (§1) […]. Minimal inhibitory concentration (MIC) determination. The minimal inhibitory concentration (MIC) was determined by using broth microdilution method. Antimicrobial activity was assayed against P. aeruginosa PAO1 (WT), Acinetobacter baumannii (ATCC19606). […]. The next day, 15 μL of MTT solution was added to each well of the plate, such a way that MIC was defined as the lowest concentration of the peptide that inhibited visible growth of the tested bacteria.

P. aeruginosa PAO1 (WT) = type: cell-based, Pseudomonas aeruginosa
Protocol: as §1

[4] = human red blood cells in 10 mM phosphate buffer saline, pH 7.4, 25 °C
[5] = incubation 16–20 h at 37 °C in MH medium

VNWKKILGKIIKVVK-NH2 [LL‐III, lasioglossin III]
documented hemolysis [1]: non‐hemolytic | Hemolysis HC50 hRBC [2, 4]: >200 µM | IC50 (HeLa cells): 6 ± 0.5 µM | IC50 (HEK293 cells): 15 ± 3 µM | MIC A. baumannii [3, 5]: 4 µg/mL

C[C@@H](NC(=O)[C@H](N)Cc1ccccc1)C(=O)N[C@H](CCCCN)C(=O)N[C@H](CCCCN)C(=O)N[C@H](Cc1ccccc1)C(=O)N[C@H](Cc1ccccc1)C(=O)N[C@H](CCCCN)C(=O)N[C@H](CCCCN)C(=O)N[C@H](Cc1ccccc1)C(=O)N[C@H](C)C(=O)N[C@H](CCCCN)C(=O)N[C@H](Cc1ccccc1)C(=O)N[C@H](C)C(=O)N[C@H](Cc1ccccc1)C(=O)N[C@H](CCCCN)C(N)=O [DA1, fakkffkkfakfafk] (H-[dF][dA][dK][dK][dF][dF][dK][dK][dF][dA][dK][dF][dA][dF][dK]-NH2)
Hemolysis HC50 hRBC ([2]; pH 7.4): >200 µM | MIC PAO1 (P. aeruginosa PAO1 (WT); PAO1): 4 µg/mL (≈ 2.12 µM) | IC50 (HeLa cells): 7.9 ± 0.3 µM | IC50 (HEK293 cells): 15 ± 2.3 µM | MIC A. baumannii ([3]; ATCC19606): 4 µg/mL (≈ 2.12 µM)

anwkkwigkviklvk [DB1]
MIC PAO1 (P. aeruginosa PAO1 (WT); [5]): 4 µg/mL | IC50 (HeLa cells): 6.2 ± 1.1 µM | IC50 (HEK293 cells): 13.1 ± 2.8 µM | MIC A. baumannii [3, 5]: 2 µg/mL

CC[C@@H](C)[C@@H](NC(=O)[C@@H](CCCCN)NC(=O)[C@@H](CCCCN)NC(=O)[C@@H](Cc1c[nH]c2ccccc12)NC(=O)[C@@H](CC(N)=O)NC(=O)[C@H](N)C(C)C)C(=O)N[C@H](CC(C)C)C(=O)NCC(=O)N[C@H](CCCCN)C(=O)N[C@@H](C(=O)N[C@@H](C(=O)N[C@H](CCCCN)C(=O)N[C@@H](C(=O)N[C@@H](C(=O)N[C@H](CCCCN)C(N)=O)C(C)C)C(C)C)[C@H](C)CC)[C@H](C)CC [DLL‐III, vnwkkilgkiikvvk] (H-[dV][dN][dW][dK][dK][dI][dL]G[dK][dI][dI][dK][dV][dV][dK]-NH2)
Hemolysis HC50 hRBC [2, 4]: >200 µM | MIC PAO1 (P. aeruginosa PAO1 (WT); [5]): 4 µg/mL (≈ 2.27 µM) | IC50 (HeLa cells): 5 ± 0.7 µM | IC50 (HEK293 cells): 14.5 ± 2 µM | MIC A. baumannii [3, 5]: 2 µg/mL (≈ 1.13 µM)
